Assay results taken from patent US9156829B2, “Cycloalkyl and heterocycloalkyl compounds as orexin receptor antagonists” (Takeda Pharmaceutical Company Limited, priority 2014, dated 2015).

Tests used:
human orexin receptor 1 = human orexin receptor 1 (Homo sapiens (Human), UniProt O43613); test: Orexin antagonist activity, intracellular calcium FLIPR assay, RBL-2H3 cells expressing human orexin receptor 1; type: cell-based; conditions: RBL-2H3 cells stably expressing human orexin receptor 1; orexin-A at approx. 80% maximal response; compound added 15 minutes before; read-out: Human Orexin1R IC50
human orexin receptor 1, sequence (O43613 whole entry): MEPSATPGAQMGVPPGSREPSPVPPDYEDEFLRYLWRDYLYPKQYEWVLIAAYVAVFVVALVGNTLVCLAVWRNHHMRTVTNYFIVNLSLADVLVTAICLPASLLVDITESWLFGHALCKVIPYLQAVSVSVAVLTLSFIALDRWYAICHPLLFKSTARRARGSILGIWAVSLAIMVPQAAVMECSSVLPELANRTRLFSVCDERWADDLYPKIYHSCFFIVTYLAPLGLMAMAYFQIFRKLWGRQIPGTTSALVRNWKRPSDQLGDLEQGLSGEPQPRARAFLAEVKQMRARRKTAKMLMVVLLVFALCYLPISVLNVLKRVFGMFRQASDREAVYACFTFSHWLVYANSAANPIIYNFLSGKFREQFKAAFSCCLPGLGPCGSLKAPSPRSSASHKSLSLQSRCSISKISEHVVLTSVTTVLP

human orexin receptor 2 = human orexin receptor 2 (Homo sapiens (Human), UniProt O43614); test: Orexin antagonist activity, intracellular calcium FLIPR assay, RBL-2H3 cells expressing human orexin receptor 2; type: cell-based; conditions: RBL-2H3 cells stably expressing human orexin receptor 2; orexin-A at approx. 80% maximal response; compound added 15 minutes before; read-out: Human Orexin2R IC50
human orexin receptor 2, sequence (O43614 whole entry): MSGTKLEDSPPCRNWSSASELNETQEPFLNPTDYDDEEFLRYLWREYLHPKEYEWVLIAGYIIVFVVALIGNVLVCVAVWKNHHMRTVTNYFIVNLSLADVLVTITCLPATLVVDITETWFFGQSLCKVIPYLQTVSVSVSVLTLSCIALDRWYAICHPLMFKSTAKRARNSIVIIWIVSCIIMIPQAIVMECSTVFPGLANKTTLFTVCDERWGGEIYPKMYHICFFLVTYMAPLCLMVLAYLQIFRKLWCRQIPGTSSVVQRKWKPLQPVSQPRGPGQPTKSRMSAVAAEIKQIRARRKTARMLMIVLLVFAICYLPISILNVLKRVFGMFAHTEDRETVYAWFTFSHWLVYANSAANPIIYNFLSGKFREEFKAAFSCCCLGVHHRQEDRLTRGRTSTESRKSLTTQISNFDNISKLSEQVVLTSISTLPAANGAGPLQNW

Question: With `COc1cccc(OC)c1C(=O)N[C@H]1CCC[C@@H]1Nc1ccc(C(F)(F)F)cn1` [Example 1, 2,6-Dimethoxy-N-[(1S,2S)-2-{[5-(trifluoromethyl)pyridin-2-yl]amino}cyclopentyl]benzamide] as the compound, how does the IC50 (human orexin receptor 1) read?
Answer: Its IC50 is 240 nM.

Question: What about the IC50 (human orexin receptor 2) of the same compound?
Answer: The IC50 was over 10000 nM.

Question: `CC1(Nc2cnc(C(F)(F)F)cn2)CCCC1NC(=O)c1ccccc1-n1nccn1` (stereo not shown) [Example 82, N-(2-Methyl-2-{[5-(trifluoromethyl)pyrazin-2-yl]amino}cyclopentyl)-2-(2H-1,2,3-triazol-2-yl)benzamide] was tested. Which IC50 (human orexin receptor 1) did it give?
Answer: The IC50 was 21 nM.

Question: And the IC50 (human orexin receptor 2)?
Answer: The IC50 was 7540 nM.

Question: Which IC50 (human orexin receptor 1) does the source give for `COc1cccc(F)c1C(=O)N[C@H]1CCC[C@@H]1Nc1ccc(C(F)(F)F)cn1` [Example 71, 2-Fluoro-6-methoxy-N-[(1S,2S)-2-{[5-(trifluoromethyl)pyridin-2-yl]amino}cyclopentyl]benzamide] here?
Answer: The IC50 was 722 nM.

Question: What about the IC50 (human orexin receptor 2) of the same compound?
Answer: Its IC50 is 7600 nM.

Question: For `Cc1nc(C(F)(F)F)cnc1N[C@H]1CCC[C@@H]1NC(=O)c1ncccc1-c1ncccn1` [Example 159, N-[(1S,2S)-2-{[3-Methyl-5-(trifluoromethyl)pyrazin-2-yl]amino}cyclopentyl]-3-(pyrimidin-2-yl)pyridine-2-carboxamide], which IC50 (human orexin receptor 1) is on record?
Answer: The IC50 was 25 nM.

Question: What about the IC50 (human orexin receptor 2) of the same compound?
Answer: The IC50 was over 10000 nM.

Question: `CC1(Nc2ncc(C(F)(F)F)cn2)CCCC1NC(=O)c1ncccc1-c1ncccn1` (stereo not shown) [Example 153, N-(2-Methyl-2-{[5-(trifluoromethyl)pyrimidin-2-yl]amino}cyclopentyl)-3-(pyrimidin-2-yl)pyridine-2-carboxamide] was tested. Which IC50 (human orexin receptor 1) did it give?
Answer: The IC50 was 66 nM.

Question: What about the IC50 (human orexin receptor 2) of the same compound?
Answer: Its IC50 is over 10000 nM.

Question: What does the source list for `Cc1nc(C(F)(F)F)cnc1N[C@H]1CCC[C@@H]1NC(=O)c1ncccc1-n1nccn1` [Example 76, N-[(1S,2S)-2-{[3-Methyl-5-(trifluoromethyl)pyrazin-2-yl]amino}cyclopentyl]-3-(2H-1,2,3-triazol-2-yl)pyridine-2-carboxamide]?
Answer: IC50 (human orexin receptor 1): 33 nM; IC50 (human orexin receptor 2): > 10000 nM

Question: Which IC50 (human orexin receptor 1) does the source give for `O=C(N[C@H]1CCC[C@@H]1Nc1ccc(C(F)(F)F)cn1)c1ncccc1-n1cccn1` [Example 101, 3-(1H-Pyrazol-1-yl)-N-[(1S,2S)-2-{[5-(trifluoromethyl)pyridin-2-yl]amino}cyclopentyl]pyridine-2-carboxamide] here?
Answer: The IC50 was 310 nM.

Question: What about the IC50 (human orexin receptor 2) of the same compound?
Answer: The IC50 was over 10000 nM.

Question: `Cc1ccc(-n2cccn2)c(C(=O)N[C@H]2CCC[C@@H]2Nc2cnc(C(F)(F)F)cn2)c1` [Example 48, 5-Methyl-2-(1H-pyrazol-1-yl)-N-[(1S,2S)-2-{[5-(trifluoromethyl)pyrazin-2-yl]amino}cyclopentyl]benzamide] was tested. Which IC50 (human orexin receptor 1) did it give?
Answer: The IC50 was 88 nM.

Question: And the IC50 (human orexin receptor 2)?
Answer: The IC50 was over 10000 nM.

Question: How did the IC50 (human orexin receptor 1) turn out when `Cc1cc(C(F)(F)F)cnc1N[C@H]1CCC[C@@H]1NC(=O)c1ccccc1-n1nccn1` [Example 108, N-[(1S,2S)-2-{[3-Methyl-5-(trifluoromethyl)pyridin-2-yl]amino}cyclopentyl]-2-(2H-1,2,3-triazol-2-yl)benzamide] was run?
Answer: The IC50 was 24 nM.

Question: And the IC50 (human orexin receptor 2)?
Answer: Its IC50 is over 10000 nM.

Question: Which IC50 (human orexin receptor 1) does the source give for `O=C(N[C@H]1CCC[C@@H]1Nc1cnc(C(F)(F)F)cn1)c1cc(F)ccc1-n1ccnn1` [Example 41, 5-Fluoro-2-(1H-1,2,3-triazol-1-yl)-N-[(1S,2S)-2-{[5-(trifluoromethyl)pyrazin-2-yl]amino}cyclopentyl]benzamide] here?
Answer: Its IC50 is 644 nM.

Question: And the IC50 (human orexin receptor 2)?
Answer: The IC50 was over 10000 nM.

Question: `O=C(N[C@H]1CCC[C@@H]1Nc1cnc(C(F)(F)F)cn1)c1cc(Cl)ccc1-n1cccn1` [Example 59, 5-Chloro-2-(1H-pyrazol-1-yl)-N-[(1S,2S)-2-{[5-(trifluoromethyl)pyrazin-2-yl]amino}cyclopentyl]benzamide] was tested. Which IC50 (human orexin receptor 1) did it give?
Answer: The IC50 was 161 nM.

Question: What about the IC50 (human orexin receptor 2) of the same compound?
Answer: Its IC50 is over 10000 nM.

Question: `O=C(N[C@H]1CCC[C@@H]1Oc1cc(C(F)(F)F)ccn1)c1ccccc1-n1nccn1` [Example 20, 2-(2H-1,2,3-Triazol-2-yl)-N-[(1S,2S)-2-{[4-(trifluoromethyl)pyridin-2-yl]oxy}cyclopentyl]benzamide] was tested. Which IC50 (human orexin receptor 1) did it give?
Answer: Its IC50 is 875 nM.

Question: What about the IC50 (human orexin receptor 2) of the same compound?
Answer: The IC50 was over 10000 nM.

Question: How did the IC50 (human orexin receptor 1) turn out when `O=C(N[C@H]1CCC[C@@H]1Nc1ccc(C(F)(F)F)cn1)c1ncccc1-n1nccn1` [Example 100, 3-(2H-1,2,3-Triazol-2-yl)-N-[(1S,2S)-2-{[5-(trifluoromethyl)pyridin-2-yl]amino}cyclopentyl]pyridine-2-carboxamide] was run?
Answer: The IC50 was 128 nM.

Question: And the IC50 (human orexin receptor 2)?
Answer: Its IC50 is over 10000 nM.

Question: `CN(c1cnc(C(F)(F)F)cn1)[C@H]1CCC[C@@H]1NC(=O)c1cc(F)ccc1-n1nccn1` [Example 74, 5-Fluoro-N-[(1S,2S)-2-{methyl[5-(trifluoromethyl)pyrazin-2-yl]amino}cyclopentyl]-2-(2H-1,2,3-triazol-2-yl)benzamide] was tested. Which IC50 (human orexin receptor 1) did it give?
Answer: The IC50 was 308 nM.

Question: And the IC50 (human orexin receptor 2)?
Answer: Its IC50 is over 10000 nM.

Question: `O=C(N[C@H]1CCC[C@@H]1Nc1cnc(C(F)(F)F)cn1)c1cc(C2CC2)ccc1-n1nccn1` [Example 57, 5-Cyclopropyl-2-(2H-1,2,3-triazol-2-yl)-N-[(1S,2S)-2-{[5-(trifluoromethyl)pyrazin-2-yl]amino}cyclopentyl]benzamide] was tested. Which IC50 (human orexin receptor 1) did it give?
Answer: Its IC50 is 38 nM.

Question: And the IC50 (human orexin receptor 2)?
Answer: Its IC50 is over 10000 nM.

Question: Which IC50 (human orexin receptor 1) does the source give for `C[C@@]1(Nc2cnc(C(F)(F)F)cn2)CCC[C@H]1NC(=O)c1ccccc1-n1nccn1` [Example 83, N-[(1R,2R)-2-Methyl-2-{[5-(trifluoromethyl)pyrazin-2-yl]amino}cyclopentyl]-2-(2H-1,2,3-triazol-2-yl)benzamide] here?
Answer: The IC50 was 2500 nM.

Question: What about the IC50 (human orexin receptor 2) of the same compound?
Answer: The IC50 was 1400 nM.

Question: With `C[C@]1(Nc2cnc(C(F)(F)F)cn2)CCC[C@@H]1NC(=O)c1ncccc1-c1ncccn1` [Example 144, N-[(1S,2S)-2-Methyl-2-{[5-(trifluoromethyl)pyrazin-2-yl]amino}cyclopentyl]-3-(pyrimidin-2-yl)pyridine-2-carboxamide] as the compound, how does the IC50 (human orexin receptor 1) read?
Answer: Its IC50 is 13 nM.

Question: What about the IC50 (human orexin receptor 2) of the same compound?
Answer: The IC50 was over 10000 nM.

Question: How did the IC50 (human orexin receptor 1) turn out when `CCOc1cnc(-c2ccccc2C(=O)N[C@H]2CCC[C@@H]2Nc2cnc(C(F)(F)F)cn2)nc1` [Example 135, 2-(5-Ethoxypyrimidin-2-yl)-N-[(1S,2S)-2-{[5-(trifluoromethyl)pyrazin-2-yl]amino}cyclopentyl]benzamide] was run?
Answer: The IC50 was 94 nM.

Question: What about the IC50 (human orexin receptor 2) of the same compound?
Answer: The IC50 was over 10000 nM.

Question: With `O=C(N[C@H]1CCC[C@@H]1Nc1cnc(C(F)(F)F)cn1)c1ccccc1C(F)(F)F` [Example 62, 2-(Trifluoromethyl)-N-[(1S,2S)-2-{[5-(trifluoromethyl)pyrazin-2-yl]amino}cyclopentyl]benzamide] as the compound, how does the IC50 (human orexin receptor 1) read?
Answer: The IC50 was 457 nM.

Question: And the IC50 (human orexin receptor 2)?
Answer: Its IC50 is over 10000 nM.

Question: How did the IC50 (human orexin receptor 1) turn out when `COc1cccc(OC)c1C(=O)N[C@H]1CCC[C@@H]1Nc1cccc(C(F)(F)F)n1` [Example 27, 2,6-Dimethoxy-N-[(1S,2S)-2-{[6-(trifluoromethyl)pyridin-2-yl]amino}cyclopentyl]benzamide] was run?
Answer: Its IC50 is 726 nM.

Question: What about the IC50 (human orexin receptor 2) of the same compound?
Answer: The IC50 was 2000 nM.

Question: Which IC50 (human orexin receptor 1) does the source give for `CCOc1ccc(C)cc1C(=O)N[C@H]1CCC[C@@H]1Nc1cnc(C(F)(F)F)cn1` [Example 29, 2-Ethoxy-5-methyl-N-[(1S,2S)-2-{[5-(trifluoromethyl)pyrazin-2-yl]amino}cyclopentyl]benzamide] here?
Answer: Its IC50 is 279 nM.

Question: What about the IC50 (human orexin receptor 2) of the same compound?
Answer: Its IC50 is over 10000 nM.

Question: For `CC1(Nc2ncc(C(F)(F)F)cc2F)CCCC1NC(=O)c1ncccc1-n1nccn1` (stereo not shown) [Example 103, N-(2-{[3-Fluoro-5-(trifluoromethyl)pyridin-2-yl]amino}-2-methylcyclopentyl)-3-(2H-1,2,3-triazol-2-yl)pyridine-2-carboxamide], which IC50 (human orexin receptor 1) is on record?
Answer: The IC50 was 8 nM.

Question: And the IC50 (human orexin receptor 2)?
Answer: The IC50 was 7900 nM.

Question: What does the source list for `O=C(N[C@H]1CCC[C@@H]1Nc1ncc(C(F)(F)F)cc1Br)c1ccccc1-n1nccn1` [Example 107, N-[(1S,2S)-2-{[3-Bromo-5-(trifluoromethyl)pyridin-2-yl]amino}cyclopentyl]-2-(2H-1,2,3-triazol-2-yl)benzamide]?
Answer: IC50 (human orexin receptor 1): 27 nM; IC50 (human orexin receptor 2): > 10000 nM

Question: Which results are given for `CCc1nc(C(F)(F)F)cnc1N[C@H]1CCC[C@@H]1NC(=O)c1ccccc1-n1nccn1` [Example 111, N-[(1S,2S)-2-{[3-Ethyl-5-(trifluoromethyl)pyrazin-2-yl]amino}cyclopentyl]-2-(2H-1,2,3-triazol-2-yl)benzamide]?
Answer: IC50 (human orexin receptor 1): 34 nM; IC50 (human orexin receptor 2): > 10000 nM

Question: With `O=C(N[C@H]1CCC[C@@H]1Nc1ccc(C(F)(F)F)cn1)c1cc(Cl)ccc1-n1nccn1` [Example 97, 5-Chloro-2-(2H-1,2,3-triazol-2-yl)-N-[(1S,2S)-2-{[5-(trifluoromethyl)pyridin-2-yl]amino}cyclopentyl]benzamide] as the compound, how does the IC50 (human orexin receptor 1) read?
Answer: The IC50 was 122 nM.

Question: And the IC50 (human orexin receptor 2)?
Answer: Its IC50 is over 10000 nM.

Question: For `O=C(N[C@H]1CCC[C@@H]1Nc1cnc(C(F)(F)F)cn1)c1cc(F)cc(F)c1-n1nccn1` [Example 61, 3,5-Difluoro-2-(2H-1,2,3-triazol-2-yl)-N-[(1S,2S)-2-{[5-(trifluoromethyl)pyrazin-2-yl]amino}cyclopentyl]benzamide], which IC50 (human orexin receptor 1) is on record?
Answer: Its IC50 is 321 nM.

Question: And the IC50 (human orexin receptor 2)?
Answer: The IC50 was over 10000 nM.

Question: For `O=C(N[C@H]1CCC[C@@H]1Nc1cnc(C(F)(F)F)cn1)c1cc(C(F)(F)F)ccc1-n1nccn1` [Example 45, 2-(2H-1,2,3-Triazol-2-yl)-5-(trifluoromethyl)-N-[(1S,2S)-2-{[5-(trifluoromethyl)pyrazin-2-yl]amino}cyclopentyl]benzamide], which IC50 (human orexin receptor 1) is on record?
Answer: The IC50 was 241 nM.

Question: And the IC50 (human orexin receptor 2)?
Answer: Its IC50 is over 10000 nM.

Question: Which IC50 (human orexin receptor 1) does the source give for `O=C(N[C@H]1CCC[C@@H]1Nc1cc(C(F)(F)F)ccn1)c1ccccc1-n1nccn1` [Example 121, 2-(2H-1,2,3-Triazol-2-yl)-N-[(1S,2S)-2-{[4-(trifluoromethyl)pyridin-2-yl]amino}cyclopentyl]benzamide] here?
Answer: Its IC50 is 822 nM.

Question: And the IC50 (human orexin receptor 2)?
Answer: Its IC50 is over 10000 nM.

Question: `C[C@]1(Nc2cnc(C(F)(F)F)cn2)CCC[C@@H]1NC(=O)c1ncccc1-n1cccn1` [Example 85, N-[(1S,2S)-2-Methyl-2-{[5-(trifluoromethyl)pyrazin-2-yl]amino}cyclopentyl]-3-(1H-pyrazol-1-yl)pyridine-2-carboxamide] was tested. Which IC50 (human orexin receptor 1) did it give?
Answer: The IC50 was 18 nM.

Question: What about the IC50 (human orexin receptor 2) of the same compound?
Answer: Its IC50 is over 10000 nM.

Question: How did the IC50 (human orexin receptor 1) turn out when `O=C(N[C@H]1CCC[C@@H]1Nc1cnc(C(F)(F)F)cn1)c1ccccc1-n1nccn1` [Example 17, 2-(2H-1,2,3-Triazol-2-yl)-N-[(1S,2S)-2-{[5-(trifluoromethyl)pyrazin-2-yl]amino}cyclopentyl]benzamide] was run?
Answer: The IC50 was 53 nM.

Question: What about the IC50 (human orexin receptor 2) of the same compound?
Answer: The IC50 was over 10000 nM.

Question: Which IC50 (human orexin receptor 1) does the source give for `O=C(NC1CC(F)(F)CC1Nc1cnc(C(F)(F)F)cn1)c1ccccc1-n1nccn1` (single isomer, unassigned) [Example 130, N-(4,4-Difluoro-2-{[5-(trifluoromethyl)pyrazin-2-yl]amino}cyclopentyl)-2-(2H-1,2,3-triazol-2-yl)benzamide] here?
Answer: Its IC50 is 77 nM.
